Reference: PubChem BioAssay AID1259407 (Chemical Carcinogenesis Research Information System (CCRIS), 2018)
Calls of active or inactive are those of the source. How the calls were made is not given here.

System: CCRIS mutagenicity, Ames/micronucleus/aberration tests
Assay: CCRIS mutagenicity studies
[1] = Test System: AMES SALMONELLA TYPHIMURIUM, Strain/Indicator: TA98, Metabolic Activation: HAMSTER, LIVER, S-9, AROCLOR 1254 (10%), Method: PREINCUBATION
[2] = Test System: AMES SALMONELLA TYPHIMURIUM, Strain/Indicator: TA98, Metabolic Activation: NONE, Method: PREINCUBATION
[3] = Test System: AMES SALMONELLA TYPHIMURIUM, Strain/Indicator: TA98, Metabolic Activation: RAT, LIVER, S-9, AROCLOR 1254 (10%), Method: PREINCUBATION
[4] = Test System: AMES SALMONELLA TYPHIMURIUM, Strain/Indicator: TA100, Metabolic Activation: HAMSTER, LIVER, S-9, AROCLOR 1254 (10%), Method: PREINCUBATION
[5] = Test System: AMES SALMONELLA TYPHIMURIUM, Strain/Indicator: TA100, Metabolic Activation: NONE, Method: PREINCUBATION
[6] = Test System: AMES SALMONELLA TYPHIMURIUM, Strain/Indicator: TA100, Metabolic Activation: RAT, LIVER, S-9, AROCLOR 1254 (10%), Method: PREINCUBATION
[7] = Test System: AMES SALMONELLA TYPHIMURIUM, Strain/Indicator: TA1535, Metabolic Activation: HAMSTER, LIVER, S-9, AROCLOR 1254 (10%), Method: PREINCUBATION
[8] = Test System: AMES SALMONELLA TYPHIMURIUM, Strain/Indicator: TA1535, Metabolic Activation: NONE, Method: PREINCUBATION
[9] = Test System: AMES SALMONELLA TYPHIMURIUM, Strain/Indicator: TA1535, Metabolic Activation: RAT, LIVER, S-9, AROCLOR 1254 (10%), Method: PREINCUBATION
[10] = Test System: AMES SALMONELLA TYPHIMURIUM, Strain/Indicator: TA1537, Metabolic Activation: NONE, Method: PREINCUBATION
[11] = Test System: AMES SALMONELLA TYPHIMURIUM, Strain/Indicator: TA98, Metabolic Activation: NONE, Method: STANDARD PLATE
[12] = Test System: AMES SALMONELLA TYPHIMURIUM, Strain/Indicator: TA98, Metabolic Activation: RAT, LIVER, S-9, AROCLOR 1254, Method: STANDARD PLATE

With OC1C2(Cl)C3(Cl)C4(Cl)C(Cl)(Cl)C5(Cl)C3(Cl)C1(Cl)C5(Cl)C24Cl (stereo not given) the mutagenic call (End Point: IN VITRO CHROMOSOMAL ABERRATIONS, Test System: CHINESE HAMSTER OVARY CELLS, Metabolic Activation: NONE) was “inactive; negative”, the mutagenic call [1] was “inactive; negative” and the mutagenic call [2] was “inactive; negative”. The mutagenic call [3] was “inactive; negative”, the mutagenic call [4] was “inactive; negative” and the mutagenic call [5] was “inactive; negative”. The mutagenic call [6] was “inactive; negative”, the mutagenic call [7] was “inactive; negative” and the mutagenic call [8] was “inactive; negative”. For the same molecule, the mutagenic call [9] was “inactive; negative”, the mutagenic call (Test System: AMES SALMONELLA TYPHIMURIUM, Strain/Indicator: TA1537, Metabolic Activation: HAMSTER, LIVER, S-9, AROCLOR 1254 (10%), Method: PREINCUBATION) was “inactive; negative” and the mutagenic call [10] was “inactive; negative”. The mutagenic call (Test System: AMES SALMONELLA TYPHIMURIUM, Strain/Indicator: TA1537, Metabolic Activation: RAT, LIVER, S-9, AROCLOR 1254 (10%), Method: PREINCUBATION) was “inactive; negative”.

In the case of O=Cc1ccccc1Cl, the mutagenic call (Test System: AMES SALMONELLA TYPHIMURIUM, Strain/Indicator: TA97, Metabolic Activation: HAMSTER, LIVER, S-9, AROCLOR 1254 (10%), Method: PREINCUBATION) was “inactive; negative”, the mutagenic call (Test System: AMES SALMONELLA TYPHIMURIUM, Strain/Indicator: TA97, Metabolic Activation: HAMSTER, LIVER, S-9, AROCLOR 1254 (30%), Method: PREINCUBATION) was “inactive; negative” and the mutagenic call (Test System: AMES SALMONELLA TYPHIMURIUM, Strain/Indicator: TA97, Metabolic Activation: NONE, Method: PREINCUBATION) was “inactive; negative”. The mutagenic call (Test System: AMES SALMONELLA TYPHIMURIUM, Strain/Indicator: TA97, Metabolic Activation: RAT, LIVER, S-9, AROCLOR 1254 (10%), Method: PREINCUBATION) was “inactive; negative”, the mutagenic call (Test System: AMES SALMONELLA TYPHIMURIUM, Strain/Indicator: TA97, Metabolic Activation: RAT, LIVER, S-9, AROCLOR 1254 (30%), Method: PREINCUBATION) was “inactive; negative” and the mutagenic call [1] was “inactive; negative”. The mutagenic call (Test System: AMES SALMONELLA TYPHIMURIUM, Strain/Indicator: TA98, Metabolic Activation: HAMSTER, LIVER, S-9, AROCLOR 1254 (30%), Method: PREINCUBATION) was “inactive; negative”, the mutagenic call [2] was “inactive; negative” and the mutagenic call (Test System: AMES SALMONELLA TYPHIMURIUM, Strain/Indicator: TA98, Metabolic Activation: RAT LIVER S-9, PCB, Method: PREINCUBATION) was “inactive; negative”. The mutagenic call [3] was “inactive; negative”, the mutagenic call (Test System: AMES SALMONELLA TYPHIMURIUM, Strain/Indicator: TA98, Metabolic Activation: RAT, LIVER, S-9, AROCLOR 1254 (30%), Method: PREINCUBATION) was “inactive; negative” and the mutagenic call [4] was “inactive; negative”. For the same molecule, the mutagenic call (Test System: AMES SALMONELLA TYPHIMURIUM, Strain/Indicator: TA100, Metabolic Activation: HAMSTER, LIVER, S-9, AROCLOR 1254 (30%), Method: PREINCUBATION) was “inactive; negative”, the mutagenic call [5] was “inactive; negative” and the mutagenic call (Test System: AMES SALMONELLA TYPHIMURIUM, Strain/Indicator: TA100, Metabolic Activation: RAT LIVER S-9, PCB, Method: PREINCUBATION) was “inactive; negative”. For the same molecule, the mutagenic call [6] was “inactive; negative”, the mutagenic call (Test System: AMES SALMONELLA TYPHIMURIUM, Strain/Indicator: TA100, Metabolic Activation: RAT, LIVER, S-9, AROCLOR 1254 (30%), Method: PREINCUBATION) was “inactive; negative” and the mutagenic call (Test System: AMES SALMONELLA TYPHIMURIUM, Strain/Indicator: TA104, Metabolic Activation: NONE, Method: PREINCUBATION) was “inactive; negative”. For the same molecule, the mutagenic call (Test System: AMES SALMONELLA TYPHIMURIUM, Strain/Indicator: TA104, Metabolic Activation: RAT LIVER S-9, PCB, Method: PREINCUBATION) was “inactive; negative”, the mutagenic call [7] was “inactive; negative” and the mutagenic call (Test System: AMES SALMONELLA TYPHIMURIUM, Strain/Indicator: TA1535, Metabolic Activation: HAMSTER, LIVER, S-9, AROCLOR 1254 (30%), Method: PREINCUBATION) was “inactive; negative”. The mutagenic call [8] was “inactive; negative”, the mutagenic call [9] was “inactive; negative” and the mutagenic call (Test System: AMES SALMONELLA TYPHIMURIUM, Strain/Indicator: TA1535, Metabolic Activation: RAT, LIVER, S-9, AROCLOR 1254 (30%), Method: PREINCUBATION) was “inactive; negative”. For the same molecule, the mutagenic call (Test System: AMES SALMONELLA TYPHIMURIUM, Strain/Indicator: TA1537, Metabolic Activation: HAMSTER, LIVER, S-9, AROCLOR 1254 (30%), Method: PREINCUBATION) was “inactive; negative”, the mutagenic call [10] was “inactive; negative” and the mutagenic call (Test System: AMES SALMONELLA TYPHIMURIUM, Strain/Indicator: TA1537, Metabolic Activation: RAT, LIVER, S-9, AROCLOR 1254 (30%), Method: PREINCUBATION) was “inactive; negative”. For the same molecule, the mutagenic call (Test System: E.COLI, Strain/Indicator: WP2 UVRA, Metabolic Activation: RAT LIVER S-9, PCB, Method: PREINCUBATION) was “inactive; negative”.

With O=c1oc2c([N+](=O)[O-])cccc2c2ccccc12 the mutagenic call (Test System: AMES SALMONELLA TYPHIMURIUM, Strain/Indicator: TA98(1,8-DNP6), Metabolic Activation: NONE, Method: MICROSUSPENSION) was “active; positive”, the mutagenic call (Test System: AMES SALMONELLA TYPHIMURIUM, Strain/Indicator: TA98(1,8-DNP6), Metabolic Activation: NONE, Method: STANDARD PLATE) was “active; positive” and the mutagenic call (Test System: AMES SALMONELLA TYPHIMURIUM, Strain/Indicator: TA98(NR), Metabolic Activation: NONE, Method: MICROSUSPENSION) was “active; positive”. The mutagenic call (Test System: AMES SALMONELLA TYPHIMURIUM, Strain/Indicator: TA98(NR), Metabolic Activation: NONE, Method: STANDARD PLATE) was “inactive; negative”, the mutagenic call (Test System: AMES SALMONELLA TYPHIMURIUM, Strain/Indicator: TA98(NR), Metabolic Activation: RAT, LIVER, S-9, AROCLOR 1254, Method: STANDARD PLATE) was “active; positive” and the mutagenic call (Test System: AMES SALMONELLA TYPHIMURIUM, Strain/Indicator: TA98, Metabolic Activation: NONE, Method: MICROSUSPENSION) was “active; positive”. For the same molecule, the mutagenic call [11] was “active; positive”, the mutagenic call (Test System: AMES SALMONELLA TYPHIMURIUM, Strain/Indicator: TA98, Metabolic Activation: RAT, LIVER, S-9, AROCLOR 1254, Method: MICROSUSPENSION) was “active; positive” and the mutagenic call [12] was “active; positive”.

For COc1ccc([C@H]2O[C@H]2C(=O)c2ccccc2)cc1, the mutagenic call [11] was “inactive; negative”, the mutagenic call [12] was “inactive; negative” and the mutagenic call (Test System: AMES SALMONELLA TYPHIMURIUM, Strain/Indicator: TA100, Metabolic Activation: NONE, Method: STANDARD PLATE) was “active; positive”. For the same molecule, the mutagenic call (Test System: AMES SALMONELLA TYPHIMURIUM, Strain/Indicator: TA100, Metabolic Activation: RAT, LIVER, S-9, AROCLOR 1254, Method: STANDARD PLATE) was “active; positive”.

In the case of CCN(CC)CCCNC(=O)N/N=C/c1ccc([N+](=O)[O-])o1, the mutagenic call (Test System: E. COLI, Strain/Indicator: WP2 UVRA, Metabolic Activation: NONE, Method: SPOT) was “active; positive”.
